# Reference: patent US6891063B1, “Salts of asiatic and madecassic acid suitable for the preparation of pharmaceutical and cosmetic compositions” (Euphar Group S.r.l., priority 1999, dated 2005)
# Tests used:
# [1] = prior art statement; cited from earlier work
# [2] = system: Croton oil induced oedema in the mouse ear; experiment: Test of topical antiinflammatory activity: Croton oil dermatitis in the mouse ear; type: in vivo; conditions: for ID50 (dose level able to reduce by 50% the oedematous response): linear interpolation from the dose-response relationship, indomethacin value confirmed from past data; for Inhibition (%) of oedema / Oedema (mg) m ± E.S.: 6 hours
# Procedure: 3. Test of Topical Antiinflammatory Activity
# The antiinflammatory activity of Asialene and L-Asialene was evaluated in comparison to that of the NSAID indomethacin. As experimental model, the Croton oil dermatitis induced in the mouse ear was used (Tubaro et al., Agents & Actions 17: 347-349).
# The experimental inflammation was induced on the right ear (surface: about 1 cm^2) of anaesthetised mice (145 mg/kg ketamine hydrochloride i.p.) by application of 80 μg of Croton oil (Sigma-Italy) in 15 μl acetone on the right ear of mice, the left remaining untreated. The tested substances were dissolved in the Croton oil solution. Six hours after the dermatitis induction, the animals were sacrificed and a punch (6 mm diameter) was excised from both the treated and the untreated ears and weighed. The Croton oil induced oedema was quantified by measuring the difference in weight between the treated and untreated (opposite) ear samples. The anti-oedema activity was expressed as percent inhibition of the oedematous response in animals treated with the test substances in comparison to the animals treated with the irritant alone. Male albino Swiss mice CD-1 (Harlan-Italy), weighing 20-32 g, were used. For each substance and dose level, 10 animals were used.
# The effects on the vascular response were evaluated as percent oedema inhibition. […] For each substance, the dose level able to reduce by 50% the oedematous response (ID50) was calculated by linear interpolation from the dose-response relationship.
# Asialene and L-Asialene were administered at equimolar doses.
# human endothelial cells [3] = experiment: Production of PG1 (6-Keto PGF1, RIA) from human endothelial cells in culture; type: cell-based; conditions: Asialene 1.5 μg/ml, culture medium + EtOH 0.75 g/dl
# Procedure: (§1) 1. Test of Production of PG1 and of Fibronectin from Human Endothelial Cells in Culture.
# The activity of the salt prepared in the Example 1, indicated as Asialene, on cicatrization was evaluated by an in vitro test which allows to deduce the effects of the substance on the vascular permeability and on the cicatrization.
# The test consists in the evaluation of the production of PG1 from cells extracted by collagenase from vein of human omphalic funicle suspended and seeded in a suitable culture medium (E199+FCS 20%+L-Glutamine 2 mM+Penicillin 200 U/ml+Streptomycin 200 μg/ml) cultured in 75 or 25 ml flasks for 48-72 hours.
# After removing the cells with 0.05% Trypsin and 0.02% EDTA the subcultures were prepared using secondary cultures seeded on a 35 mm Petri dish, kept in an incubator with 5% CO2 and 100% humidity. For the evaluation of the cell morphology and confluence and the PG1 production, about 300,000 cells/ml of culture medium were used carrying out the count in a Burker chamber, following three schemes: • 1. Cells+culture medium+EtOH(0.75 g/dl) • 2. Cells+culture medium+EtOH(0.75 g/dl)+FTT([…]) • 3. […]
# The cultures were evaluated with an inverse light microscope, at 24 and 48 hours monitoring cell attachment and growth while on supernatant aliquots the stable metabolite of the prostacyclin (6-Keto PGF1) was assayed with RIA method. […]
# human endothelial cells [4] = experiment: Fibronectin evaluation (immunofluorescence, intercellular strands) in human endothelial cells in culture; type: cell-based; conditions: 1.5 μg/ml; after 48 hours; culture medium + EtOH 0.75 g/dl
# Procedure: as §1
# For the Fibronectin evaluation, the primary cultures were resuspended in 0.05% Trypsin/0.02% EDTA. The cells, washed twice in Hanks solution, were counted in order to assure at least 300,000 cells/ml and seeded. After 48 hours the supernatant was removed and the slides were prepared, which after being washed 2 times with PBS, and dried, were fixed in acetic acid/ethanol for 30 minutes; a washing with PBS was then carried out and added the polyclonal rabbit anti-human fibronectin antibody (1:40, Dako). After incubation at room temperature for 30 minutes, it was washed with PBS and the fluoresceinated anti-rabbit immunoglobulin antibody was added (1:100, Dako). The slides were left in incubation for 30 minutes and then mounted on an object holder and read with a fluorescence electronic microscope.
# In the following table, the numbers relating to fibronectin intercellular strands (1:100 scale) are reported.
# platelet = experiment: Evaluation of the platelet aggregation inhibiting effect in PRP; type: cell-based, human; conditions: 70 μg/ml
# Procedure: 2. Evaluation of the Platelet Aggregation Inhibiting Effect
# Blood taken from healthy volunteers not submitted to pharmacological therapy during one week, was gathered in polyethylene test-tubes containing 3.8% sodium citrate in 1:9 ratio, and centrifuged at 1000 g for 10 minutes in order to obtain plasma having a high platelet content (PRP) and at 3000 g for 15 minutes in order to obtain plasma having a low platelet content (PPP). Two […] PRP samples (300,000+/−10000 platelet/ml final concentration) were submitted to incubation at 37° C. for 60 seconds in presence of 100 μl FTT (700 μg/ml) and 10 μl of Asialene ([…]) respectively. Each sample was divided in three portions which were treated with 10 μl of a platelet aggregation agent, ADP ([…] final concentration), collagen (4 μg/ml final concentration) and arachidonic acid (0.2 mg/ml final concentration) respectively, and the aggregation was recorded for 4 minutes.
compound,measurement,setting,value
C[C@H]1[C@H](C)CC[C@]2(C(=O)O)CC[C@]3(C)C(=CC[C@@H]4[C@@]5(C)C[C@@H](O)[C@H](O)[C@@](C)(CO)[C@@H]5[C@H](O)C[C@]43C)[C@H]12 [madecassic acid],solubility in water,[1],almost total insolubility in water
"C[C@@H]1CC[C@]2(C(=O)O)CC[C@]3(C)C(=CCC4[C@@]5(C)C[C@@H](O)[C@H](O)[C@@](C)(CO)C5CC[C@]43C)C2[C@H]1C (stereo partly drawn) [asiatic, 2α, 3β, 23-trihydroxyurs-12-en-28-oic acid]",solubility in water,[1],almost total insolubility in water
"COc1ccc2c(c1)c(CC(=O)O)c(C)n2C(=O)c1ccc(Cl)cc1 [Indomethacin, indomethacin, reference compound]",ID50 (dose level able to reduce by 50% the oedematous response),[2],90 μg/cm^2
same,Inhibition (%) of oedema,[2]; topical dose 90 μg/cm^2,49.3%
same,Oedema (mg) m ± E.S.,[2]; topical dose 90 μg/cm^2,3.5 ± 0.4 mg
Salt of the Asiatic Acid with Ethylenediamine [Asialene],6-Keto PGF1,human endothelial cells [3]; 24 h,980 µg/mL
same,6-Keto PGF1,human endothelial cells [3]; 48 h,889 µg/mL
same,fibronectin intercellular strands (1:100 scale),human endothelial cells [4],85
same,Aggregation from arachidonic acid (0.2 mg/ml),platelet; controls 81,23
same,Aggregation from ADP (4 mM),platelet; controls 88,32
same,Aggregation from collagen (4 μg/ml),platelet; controls 100,50
same,ID50 (dose level able to reduce by 50% the oedematous response),[2],62 μg/cm^2
same,Inhibition (%) of oedema,[2]; topical dose 30 μg/cm^2,27.5%
same,Oedema (mg) m ± E.S.,"[2]; topical dose 30 μg/cm^2, control 6.9 ± 0.2",5.0 ± 0.4 mg
same,Inhibition (%) of oedema,[2]; topical dose 100 μg/cm^2,68.1%
same,Oedema (mg) m ± E.S.,"[2]; topical dose 100 μg/cm^2, control 6.9 ± 0.2",2.2 ± 0.5 mg
same,Inhibition (%) of oedema,[2]; topical dose 300 μg/cm^2,91.3%
same,Oedema (mg) m ± E.S.,"[2]; topical dose 300 μg/cm^2, control 6.9 ± 0.2",0.6 ± 0.1 mg
same,Inhibition (%) of oedema,[2]; topical dose 1000 μg/cm^2,94.2%
same,Oedema (mg) m ± E.S.,"[2]; topical dose 1000 μg/cm^2, control 6.9 ± 0.2",0.4 ± 0.1 mg
same,potency higher than that of the reference drug (comparison between the ID50 values),[2]; versus indomethacin,50%
